As a reminder, the solubility (kinetic) is the concentration staying in solution when a stock, usually in DMSO, is diluted into the medium.

Molecules are shown by their SMILES. Values after ≈ are worked out from the molar mass of the structure shown.

The conditions of the data set: buffer; pH 7.4; 200.0 µM.
Take `C=C(C)c1cccc(C(C)(C)NC(=O)N2CCN(c3ccccc3)CC2)c1`: the solubility (kinetic) came to 0.3 µg/mL (≈ 0.825 µM).

Compound `CC(C)Cc1ccc(C(=O)Nc2ccc(Cc3ccncc3)cc2)o1` gave a solubility (kinetic) of 8.7 µg/mL (≈ 26 µM).

`Cc1cc(C)cc(C(=O)OCC(=O)NC(=O)NC2CCCC2)c1` yielded a solubility (kinetic) of 4.1 µg/mL (≈ 12.9 µM).

`CC(=O)c1sc(NC(=O)c2ccc(F)cc2)nc1-c1ccccc1` gave a kinetic solubility below 0.4 µg/mL.

In turn, `O=C(O)c1c(NC(=O)N2CCOCC2)sc2c1CCCC2` registered a solubility (kinetic) above 46.6 µg/mL.

For `CC1CC(O)C(C)CN1` (centres undefined), the solubility (kinetic) is above 19.4 µg/mL.

Consider `CC(=O)Oc1ccc(NC(=O)Cc2ccccc2)c(C(=O)O)c1`, for which the solubility (kinetic) is above 47 µg/mL.

Consider `COc1cccc(CNC(=O)COC(=O)/C=C/c2ccc(SC)cc2)c1`, for which the solubility (kinetic) was found to be 3.8 µg/mL (≈ 10.2 µM).

The compound `Cc1ccc(-n2c(C)c(C)c3c(N)ncnc32)cc1` had a solubility (kinetic) of 16.1 µg/mL (≈ 63.8 µM).

Regarding `Cc1cccnc1NC(=O)c1ccc2c(c1)OCO2`, the kinetic solubility was above 38.4 µg/mL.

Take `CCC(Oc1ccccc1OC)C(=O)N1CC(=O)Nc2ccccc21` (centres undefined): the kinetic solubility stood at 43 µg/mL (≈ 126 µM).

Compound `Cc1cc(S(=O)(=O)N2CCOCC2)c(C)s1` had a solubility (kinetic) above 39.2 µg/mL.

`C1CN(CCN2CCOCC2)CCN1`: the solubility (kinetic) amounted to 22.7 µg/mL (≈ 114 µM).

Consider `N/C(=N\OC(=O)COc1ccc2ccccc2c1)c1ccncc1`, for which the kinetic solubility was 6.2 µg/mL (≈ 19.3 µM).

As to `COc1cc(-c2nnc(SCC(=O)Nc3ccc(C(=O)O)cc3)o2)cc(OC)c1OC`, the solubility (kinetic) was above 66.8 µg/mL.

`Cc1cc(C)cc(NC(=O)N(C)Cc2ccccc2)c1` came in with a kinetic solubility of 2 µg/mL (≈ 7.45 µM).

Compound `Cc1cccc(C2NC(=O)c3ccccc3O2)c1` (centres undefined) returned a kinetic solubility of 24.3 µg/mL (≈ 102 µM).

As for `COc1ccc(-c2c(C)nn(-c3ccccc3)c2NC(C)=O)cc1OC`, the solubility (kinetic) is above 52.7 µg/mL.

As for `O=c1nc(SCc2cccc(C(F)(F)F)c2)nc2ccccn12`, the solubility (kinetic) was determined as 7 µg/mL (≈ 20.8 µM).

With `Cc1ccc(NC(=O)[C@@H]2CCCN2S(=O)(=O)c2ccc(Cl)cc2)cc1`, the kinetic solubility worked out at 14 µg/mL (≈ 37 µM).

With `CCN(CC)CCNC(=O)c1ccc(-n2c(C)cc3c2CCCC3=O)cc1`, the kinetic solubility amounted to 33.7 µg/mL (≈ 91.7 µM).

`Cc1cccc(CN2CCN(C(=O)c3cccc4ccccc34)CC2)c1` yielded a solubility (kinetic) of 38.6 µg/mL (≈ 112 µM).

Take `CCCC(=O)NC(c1ccc(C)cc1)c1ccc2cccnc2c1O` (centres undefined): the solubility (kinetic) came out at 1.2 µg/mL (≈ 3.59 µM).

On to `O=C(COC(=O)c1cc2ccccc2cc1O)NCc1ccccc1`, for which the solubility (kinetic) worked out at 3 µg/mL (≈ 8.95 µM).

As for `CC(CCc1ccccc1)NC(=O)CCC(=O)N1CCC(C(N)=O)CC1` (centres undefined), the solubility (kinetic) was found to be 48.7 µg/mL (≈ 135 µM).

In the case of `O=C1C2CCCCN2C(=O)N1CCCCN1CCN(c2cccc(Cl)c2)CC1` (centres undefined), the kinetic solubility was 54.2 µg/mL (≈ 134 µM).

The compound `N#Cc1c2n(c3c(N)ncnc13)CCCCC2` displayed a solubility (kinetic) of 33.6 µg/mL (≈ 148 µM).

For `Cc1ccnc(Nc2nc(-c3ccc(O)cc3O)cs2)c1`, the solubility (kinetic) turned out to be 2 µg/mL (≈ 6.68 µM).

Take `Cc1csc(SCC(=O)Nc2ccc3[nH]c(=O)[nH]c3c2)n1`: the solubility (kinetic) is above 48.1 µg/mL.

As to `CCSC1=C(C#N)C(CC(C)C)C2=C(CCCC2=O)N1` (centres undefined), the solubility (kinetic) is 41.9 µg/mL (≈ 144 µM).

Regarding `CN(C)C(=O)c1ccc(NC(=O)c2sccc2-c2ccccc2)cc1`, the kinetic solubility worked out at 49.1 µg/mL (≈ 140 µM).

The compound `Cn1c(=O)n(Cc2ccc(Br)cc2)c2ccccc21` showed a kinetic solubility of 25.7 µg/mL (≈ 81 µM).

`CCN(CCO)C(=O)c1ccc2oc(Cc3ccc(Cl)cc3)nc2c1` registered a solubility (kinetic) of 41.5 µg/mL (≈ 116 µM).

`O=C(c1ccccc1Cl)N1CCn2c1nc1ccccc12` had a solubility (kinetic) of 29.5 µg/mL (≈ 99.1 µM).

`CCc1cc2c(=O)n(-c3ccccc3)c(SCC(N)=O)nc2s1` came in with a kinetic solubility of 2.8 µg/mL (≈ 8.11 µM).

Consider `CSCCCNC(=S)N1CCc2ccccc2C1`, for which the solubility (kinetic) is above 42.1 µg/mL.

As to `CC(=O)Nc1cccc(C(=O)OCN2C(=O)c3ccccc3C2=O)c1`, the solubility (kinetic) worked out at 9.5 µg/mL (≈ 28.1 µM).

Compound `O=c1nc(/C=C/c2ccc(Cl)cc2Cl)cc(C(F)(F)F)[nH]1` came in with a kinetic solubility of 7.3 µg/mL (≈ 21.8 µM).

In turn, `COCCNC(=S)NCc1cccs1` gave a solubility (kinetic) of 31.9 µg/mL (≈ 138 µM).

As for `Cc1cc(S(=O)(=O)Nc2ccc(C(=O)NCC3CCCO3)cc2)ccc1F` (centres undefined), the solubility (kinetic) was determined as 1 µg/mL (≈ 2.55 µM).

As for `CCCC(=O)N(Cc1cc(=O)[nH]c2ccccc12)c1ccccc1`, the solubility (kinetic) is above 48.1 µg/mL.

The compound `Cc1cc(Br)cc(C=Nc2ccc(N3CCOCC3)cc2)c1O` yielded a kinetic solubility of 6.1 µg/mL (≈ 16.3 µM).

Compound `CSc1nc(N2CCOCC2)c2c(c1C#N)CC(C(C)C)OC2` (centres undefined) gave a solubility (kinetic) below 0.2 µg/mL.

The compound `CCn1cc(S(=O)(=O)Nc2ccc(Cl)cc2F)cn1` returned a kinetic solubility above 45.6 µg/mL.

As for `CN(C1=NC(=O)CS1)c1ccc(O)cc1`, the solubility (kinetic) was above 33.3 µg/mL.

For `Cc1ccc(S(=O)(=O)N2CCOCC2)cc1C(=O)OCC(=O)NCCc1ccccc1`, the solubility (kinetic) is above 67 µg/mL.

Consider `Cl.NCc1cc2c3c(c1)CCCN3CCC2`, for which the kinetic solubility is above 41.3 µg/mL.

`COc1ccc2[nH]c(C(=O)N3CCN(C)CC3)c(C)c2c1` gave a solubility (kinetic) above 43.1 µg/mL.

Compound `Cc1ccc(SCC(=O)OCC(=O)NCCc2ccc(S(N)(=O)=O)cc2)c(C)c1` yielded a kinetic solubility of 51.3 µg/mL (≈ 118 µM).

Compound `Cc1ccccc1C(=O)NCCOc1ccccc1Cl` gave a kinetic solubility of 40.4 µg/mL (≈ 139 µM).

In turn, `C=CCNC(=O)c1cc2c(=O)n3ccccc3nc2s1` registered a solubility (kinetic) of 10.4 µg/mL (≈ 36.4 µM).

`COc1ccc([N+](=O)[O-])cc1NC(=O)Nc1ccc(OC)c(OC)c1` returned a solubility (kinetic) of 0.3 µg/mL (≈ 0.864 µM).

Regarding `CN(C)CCCN1C(=O)c2cc3ccccc3cc2C1=O`, the solubility (kinetic) stood at 27.8 µg/mL (≈ 98.5 µM).

`O=[N+]([O-])c1cccc(NC(=S)N2CCc3ccccc3C2)c1`: the kinetic solubility came to 1.3 µg/mL (≈ 4.15 µM).

`Cc1ccc(S(=O)(=O)Nc2ccc(Cl)cn2)cc1C` gave a kinetic solubility of 3.4 µg/mL (≈ 11.5 µM).

The compound `COc1ccc(C(CCO)NC(=O)c2cccs2)cc1OC` (centres undefined) had a solubility (kinetic) above 48.2 µg/mL.

For `CCOC(=O)c1cncc(C#CCO)c1`, the solubility (kinetic) was above 30.8 µg/mL.

The compound `CN(C)CCCNC(=O)c1cc(C(=O)c2ccc(F)cc2)c[nH]1` returned a kinetic solubility above 47.6 µg/mL.

In turn, `COc1ccc(N2CC(C(=O)N3CCN(C)CC3)CC2=O)cc1` (centres undefined) returned a kinetic solubility of 43.8 µg/mL (≈ 138 µM).

Turning to `COc1ccc(NC(=O)C2C3CCC(O3)C2C(=O)O)c(OC)c1` (centres undefined), the solubility (kinetic) was above 48.2 µg/mL.

As for `Cc1cc2c(c(SCC(N)=O)n1)C(=O)OC2`, the kinetic solubility is above 35.7 µg/mL.

Compound `COCCCC/C(=N\OCCN)c1ccc(C(F)(F)F)cc1.O=C(O)/C=C\C(=O)O` showed a kinetic solubility above 65.2 µg/mL.

With `CSc1nc2nc3c(cc2c(=O)n1-c1cccc(C)c1)COC(C)(C)C3`, the solubility (kinetic) worked out at 2.6 µg/mL (≈ 7.08 µM).

On to `O=C(Nc1ncccn1)c1ccc([N+](=O)[O-])cc1`, for which the solubility (kinetic) came to 36.5 µg/mL (≈ 149 µM).

Compound `Cc1c(C(=O)C(=O)N2CCN(C)CC2)c2ccccc2n1C` yielded a kinetic solubility above 44.9 µg/mL.

As for `Cc1ccc(-c2csc(NC(=O)c3c(C)noc3C)n2)s1`, the solubility (kinetic) was 15.8 µg/mL (≈ 49.5 µM).

Compound `CC(C)C(C)NC(=O)CN1C(=O)NC2(CCc3ccccc32)C1=O` (centres undefined) yielded a kinetic solubility above 49.4 µg/mL.

In turn, `Cc1noc(C)c1S(=O)(=O)Nc1ccc(C#N)cc1` gave a kinetic solubility above 41.6 µg/mL.

`O=C(OCC(O)COc1ccccc1)c1ccc([N+](=O)[O-])cc1` (centres undefined) returned a kinetic solubility of 43.7 µg/mL (≈ 138 µM).

`CC(C)NC(=O)CN1CCC(c2nc3ccccc3[nH]2)CC1` came in with a kinetic solubility above 45.1 µg/mL.

`O=C(COC(=O)c1ccc([N+](=O)[O-])cc1)Nc1ccccc1C(=O)NC1CC1` had a kinetic solubility of 8.5 µg/mL (≈ 22.2 µM).

`O=C(NC1CCNCC1)C1CC1` had a kinetic solubility above 25.2 µg/mL.

`Cc1cccc(C(=O)OCC(=O)N2CCCC2=O)c1[N+](=O)[O-]` displayed a kinetic solubility above 45.9 µg/mL.

As for `Cc1cc(C)n(Cc2cc(C(=O)O)c3ccccc3n2)n1`, the solubility (kinetic) was above 42.2 µg/mL.

Values taken from PubChem BioAssay AID1996.
